# US20100227797A1, “USE OF CYCLOLIGNANS FOR THE TREATMENT OF TYPE 2 DIABETES AND AS CONTRACEPTIVES” (AXELAR AB, priority 2006, published 2010)
# “And” between values parts separate entries of the source, which are not always exact repeats. Equal values may be shown once. Marks after values point to notes of the source that are not given here.
# Legend:
# [1] = system: macular degeneration lesions; assay: Laser induction of macular degeneration lesions, mouse model; format: in vivo, C57Bl/6 mice; parameters: Area of macular degeneration: scale not given here
# Description: To induce macular degeneration lesions adult C57Bl/6 mice were anesthetized and three laser spots were placed in fundus flavimaculatus of the choroidea with a krypton red laser (614 nm, […], 0.05 second, 200 mW). The mice were then treated with PPP (20 mg/kg/12 h) intraperitoneally using DMSO as vehicle for two weeks. Control mice were treated with vehicle only. Twenty mice were treated in each group. Two weeks after the laser treatment, the animals were perfused with 3% FITC-conjugated high-molecular-weight dextran, sacrificed and choroidal flat mounts were prepared. Flat-mounts were examined with fluorescence microscopy Axioskop microscope. Macular degeneration lesions were identified as FITC-perfused vessels. Image-Pro Plus software was used to measure the area of each CNV lesion. Data were recorded as area of macular degeneration lesions (μm^2). Macular degeneration is the leading cause of vision loss. Macular degeneration lesions were induced in 40 adult C57Bl/6 mice by laser. Twenty animals received intraperitoneal (i.p.) injections of picropodophyllin (PPP; 20 mg/kg/12 h) for 2 weeks. Controls received i.p. injections of vehicle. Two weeks after the laser treatment the animals were sacrificed and choroidal flat mounts were prepared. Flat-mounts were examined with fluorescence microscopy. Image-Pro Plus software was used to measure the area of each CNV lesion.
# [2] = system: implantation of the embryo; assay: Effect on implantation in a mouse model; format: in vivo, mice; details: 20 mg/kg/12 h i.p., day 3 to 6 after plug
# Description: The animals were put for mating and the vaginal plug was checked on the next morning. Six female mice positive for vaginal plug were treated with picropodophyllin (20 mg/kg/12 h, given intraperitoneally) and six with vehicle (controls) from day 3 to 6 after the plug. They were sacrificed on day 9 after ovulation. The organs collected were ovaries, uterus, liver and spleen for biochemical analysis.
# ovulation = assay: Effect on ovulation in a mouse model; format: in vivo; details: female mice
# Description: Female mice were treated with picropodophyllin (PPP; 20 mg/kg/12 h, given intrapritoneally) on days −1 and 0 of mating. The vaginal plug was checked on the next morning. Six animals from each group were sacrificed 4 days after mating. The organs collected were ovaries, uterus, liver and spleen for biochemical analysis.
# [3] = Assay of blood glucose in mice after one week picropodophyllin treatment; format: in vivo, SCID mice; details: 20 mg/kg/12 h i.p.
# Description: Ten weeks old SCID mice were treated with PPP (20 mg/kg/12 h) intraperitoneally using DMSO as vehicle. Control mice were treated with vehicle only. Three mice were treated in each group. After treatment for 7 days, the mice were sacrificed 4 h after the last injections. Blood samples were taken and the concentration of glucose in the serum was determined by a dry slide technique using Vitros 950 Chemistry System. In this experiment, healthy SCID mice were treated with picropodophyllin by intraperitoneal injections twice daily, the dose being 20 mg/kg/12 h. The control group was treated with the vehicle only (totally per day: 20 μL DMSO). Each group included 3 mice.
smiles,measurement,setting,value
"COc1cc([C@@H]2c3cc4c(cc3[C@H](O)[C@H]3COC(=O)[C@@H]23)OCO4)cc(OC)c1OC [PPP, picropodophyllin]",Area of macular degeneration,"[1]; mean, C57Bl/6 mice, 20 mg/kg/12 h i.p. for 2 weeks after laser, vehicle mean 2.565",Mean: 1.753 μm^2
same,Decrease in macular degeneration lesion area,"[1]; versus vehicle, 20 mg/kg/12 h i.p. for 2 weeks, statistically significant",32%
same,Effect on implantation of the embryo,[2]; no statistical significance,interferes negatively with implantation
same,Number of pregnancies,"[2]; 6 plug-positive female mice, sacrificed day 9, vehicle 4 of 6, not statistically significant",2*
same,Number of mice with positive plug,"ovulation; 20 mg/kg/12 h i.p. on days -1 and 0 of mating, n = 36, vehicle 3 of 6",n = 0
same,Percent ovulated mice,"ovulation; 20 mg/kg/12 h i.p. on days -1 and 0 of mating, vehicle 50%",0%
same,Inhibition of ovulation,"ovulation; 20 mg/kg/12 h i.p., P=0.005919, Fishers exact test",did not ovulate at all
same,Effect on blood glucose levels,"[3]; SCID mice, one week, compared to controls",decreased the blood glucose levels
same,Glucose level in serum,"[3]; individual SCID mice, 7 days, sampled 4 h after last injection, 20 mg/kg",4.5 mM (2×) and 5.7 mM
same,"Glucose level in serum, mean","[3]; mean of 3 SCID mice, 7 days, vehicle control mean 7.0",4.9 mM
